The source of these data is patent US9163012B2, “Carbamate and urea inhibitors of 11β-hydroxysteroid dehydrogenase 1” (Vitae Pharmaceuticals, Inc., priority 2009, dated 2015).

By IC50 is commonly meant the point on the concentration scale where inhibition reaches its midpoint. Broadly, the inhibition is the drop in the measured response relative to a control, in per cent.

Assay type in all cases: biochemical
The target in assay [1] is T1, 11β-HSD1 (Homo sapiens (Human), UniProt P28845). Description: Biological Test Example 4: HTRF assay of 11β-HSD1 in human liver microsomes. The note with it: HTRF cortisol detection. How it is done: In vitro inhibition of 11β-HSD1 by test compounds is determined with HTRF (Homogeneous Time-Resolved Fluorescence) technology (cisbio international, France) detecting cortisol generated from […] by human liver microsomes. […] Cortisol generated in the reaction is then detected with a competitive immunoassay, involving two HTRF conjugates: cortisol linked to XL665 and anti-cortisol antibody labeled with Europium cryptate. The incubation period for detection reaction is typically 2 hours. […] The ratio of the two emission signals is then calculated (Em665*10000/Em615). […] Each assay also contains a calibration curve with cortisol to transform the fluorescent data into cortisol concentrations. Percent inhibition (% CTL) of each compound is determined relative to the carbenoxolone signal and IC50 curves are generated.
Target sequence in this assay (P28845 whole entry): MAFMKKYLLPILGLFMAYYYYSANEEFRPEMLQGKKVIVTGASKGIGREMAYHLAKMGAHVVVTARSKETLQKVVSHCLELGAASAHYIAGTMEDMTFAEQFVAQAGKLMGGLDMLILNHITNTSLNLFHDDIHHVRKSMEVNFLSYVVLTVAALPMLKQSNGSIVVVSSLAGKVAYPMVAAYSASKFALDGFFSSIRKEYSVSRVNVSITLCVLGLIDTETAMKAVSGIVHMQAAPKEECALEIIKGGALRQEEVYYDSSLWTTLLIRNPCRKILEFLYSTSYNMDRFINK

The target of assay [2] is T1, 11β-HSD1. In words: Biological Test Example 3: inhibition of purified recombinant 11β-HSD1 (SPA). The note with it: purified recombinant 11β-HSD1 expressed in E. coli, read-out: IC50 Range. How it is done:
The inhibition of purified 11β-HSD1 by compounds of Formula I is measured using a Scintillation Proximity Assay. All reactions are carried out at room temperature in 96 well flexible Microbeta reaction plates. First, 1 μL of a 0.1 mM solution of a compound of Formula I is mixed in DMSO diluted in half-log increments (8 points) starting at 1 μM final concentration. To this dot is added 50 μL of substrate solution (50 mM HEPES, pH 7.4, 100 mM KCl, 5 mM NaCl, 2 mM MgCl2 containing 20 μM ^3H cortisone, 1 mM NADPH). […] The reaction is then incubated for 90 minutes, and stopped by adding 50 μl of SPA bead mix (18-β-glycyrrhetinic acid, 10 μM final, 5 mg/ml protein A coated YSi SPA beads, and 1 ug/ml α-cortisol antibody (East Coast Biologics)). The plate is shaken for 120 minutes, and the radioactivity corresponding to ^3H cortisol is measured on a Wallac Microbeta.
Target sequence in this assay (P28845 whole entry, species assumed): as the sequence (P28845 whole entry) above

Assay [3] has as its target T1, 11β-HSD1. In words: Biological Test Example 1: inhibition of a microsomal preparation of 11β-HSD1 (SPA). The conditions noted are these: for IC50: Biological Test Example 1.
Target sequence in this assay (P28845 whole entry): as above
The mark [4] stands for this setting: microsomes from CHO cells overexpressing human 11β-HSD1, read-out: IC50 Range.
Setting [5] is: read-out: Average % inhibition at 100 nM, Biological Test Example 1, 100 nM compound.

Molecules are shown by their SMILES. Where two headings read alike, the source gives them in different places.

At 11β-HSD1 [1], `N#Cc1ccn([C@@H]2CCN(C(=O)OC3C4CC5CC3CC(O)(C5)C4)C2)c(=O)c1` (single isomer, unassigned; isomer 1) [Example 78 Isomer 1] gave an IC50 above 10000 nM.
Regarding `N#Cc1ccn([C@@H]2CCN(C(=O)OC3C4CC5CC3CC(O)(C5)C4)C2)c(=O)c1` (single isomer, unassigned; isomer 2) [Example 78 Isomer 2], the IC50 on 11β-HSD1 [1] stood at 1170 nM.
Turning to `O=C(OC1C2CC3CC(C2)CC1C3)N1CCCC1c1ccccc1` (stereo not drawn) [EXAMPLE 7, 2-adamantyl 2-phenylpyrrolidine-1-carboxylate], the IC50 on 11β-HSD1 [2] was below 100 nM.
Consider `O=C(OC1C2CC3CC(C2)CC1C3)N1CCC(c2ccccc2)C1` (stereo not drawn) [EXAMPLE 8, 2-adamantyl 3-phenylpyrrolidine-1-carboxylate], for which the concentration for half-maximal inhibition (IC50) on 11β-HSD1 [2] is below 100 nM.
The same measure, in the same setting: the same measure for `O=C(OC1C2CC3CC(C2)CC1C3)N1CCCC1Cc1ccccc1` (stereo not drawn) [EXAMPLE 9, 2-adamantyl 2-benzylpyrrolidine-1-carboxylate]: below 100 nM.
Regarding `O=C(OC1C2CC3CC(C2)CC1C3)N1CCC(Cc2ccccc2)C1` (stereo not drawn) [EXAMPLE 10, 2-adamantyl 3-benzylpyrrolidine-1-carboxylate], at 11β-HSD1 [2], the half-maximal inhibitory concentration (IC50) is below 100 nM.
Still for that read-out and setting: the same measure for `Cc1ccccc1C1(CC(=O)O)CCN(C(=O)OC2C3CC4CC(C3)CC2C4)CC1` (stereo not drawn) [EXAMPLE 12, 2-(1-(2-adamantyloxycarbonyl)-4-o-tolylpiperidin-4-yl)acetic acid]: 100 to 1000 nM.
Same read-out and setting: the same measure for `CCOC(=O)C1(Cc2ccccc2)CCCN(C(=O)OC2C3CC4CC(C3)CC2C4)C1` (stereo not drawn) [EXAMPLE 13, 1-(2-adamantyl) 3-ethyl 3-benzylpiperidine-1,3-dicarboxylate]: below 100 nM; for `O=C(OC1C2CC3CC(C2)CC1C3)N1CCC(N2C(=O)Cc3ccccc32)CC1` (stereo not drawn) [EXAMPLE 27, 2-adamantyl 4-(2-oxoindolin-1-yl)piperidine-1-carboxylate]: below 100 nM.
On to `Cc1nc2cccc(Cl)c2n1[C@@H]1CCN(C(=O)OC2C3CC4CC2CC(C(N)=O)(C4)C3)C1` (stereo partly drawn) [EXAMPLE 59, (R)-1-carbamoyl-4-adamantyl 3-(7-chloro-2-methyl-1H-benzo[d]imidazol-1-yl)pyrrolidine-1-carboxylate], for which the IC50 is below 100 nM at 11β-HSD1 [3] (setting [4]) and 1.92 nM on 11β-HSD1 [3] (read-out: IC50). Also, the inhibition at 0.1 µM on 11β-HSD1 [3] (setting [5]) was found to be 96.7%.
For `NC(=O)[C@]12CC3CC(C1)[C@@H](OC(=O)N1CC[C@H](n4c(=O)[nH]c5ccccc54)C1)C(C3)C2` [EXAMPLE 60, (S)-trans-1-carbamoyl-4-adamantyl 3-(2-oxo-2,3-dihydro-1H-benzo[d]imidazol-1-yl)pyrrolidine-1-carboxylate] the same measures were below 100 nM, 0.76 nM and 93.9%.
For `NC(=O)[C@]12CC3CC(C1)[C@@H](OC(=O)N1CC[C@@H](n4c(=O)[nH]c5ccccc54)C1)C(C3)C2` [EXAMPLE 61, (R)-trans-1-carbamoyl-4-adamantyl 3-(2-oxo-2,3-dihydro-1H-benzo[d]imidazol-1-yl)pyrrolidine-1-carboxylate] the same measures were below 100 nM, 4.17 nM and 89.9%.
For `Cn1c(=O)n([C@@H]2CCN(C(=O)O[C@H]3C4CC5CC3C[C@](C(N)=O)(C5)C4)C2)c2ccccc21` [EXAMPLE 62, (R)-trans-1-carbamoyl-4-adamantyl 3-(3-methyl-2-oxo-2,3-dihydro-1H-benzo[d]imidazol-1-yl)pyrrolidine-1-carboxylate] the same measures were below 100 nM, 3.07 nM and 92.7%.
As to `NC(=O)[C@]12CC3CC(C1)[C@@H](OC(=O)N1CC[C@H](n4c(=O)[nH]c5cc(F)ccc54)C1)C(C3)C2` [EXAMPLE 63, (S)-trans-1-carbamoyl-4-adamantyl 3-(5-fluoro-2-oxo-2,3-dihydro-1H-benzo[d]imidazol-1-yl)pyrrolidine-1-carboxylate], the results for the half-maximal inhibitory concentration (IC50) at 11β-HSD1 [3] (setting [4]) and at 11β-HSD1 [3] (read-out: IC50) were below 100 nM and 1.01 nM, respectively. Further, the inhibition at 0.1 µM on 11β-HSD1 [3] (setting [5]) came to 91.2%.
For `N#Cc1ccc2[nH]c(=O)n([C@@H]3CCN(C(=O)O[C@H]4C5CC6CC4C[C@](C(N)=O)(C6)C5)C3)c2c1` [EXAMPLE 65, (R)-trans-1-carbamoyl-4-adamantyl 3-(6-cyano-2-oxo-2,3-dihydro-1H-benzo[d]imidazol-1-yl)pyrrolidine-1-carboxylate] the same measures were below 100 nM, 33.1 nM and 69%.
For `NC(=O)[C@]12CC3CC(C1)[C@@H](OC(=O)N1CC[C@H](n4c(=O)[nH]c5cccc(Cl)c54)C1)C(C3)C2` [EXAMPLE 67, (S)-trans-1-carbamoyl-4-adamantyl 3-(7-chloro-2-oxo-2,3-dihydro-1H-benzo[d]imidazol-1-yl)pyrrolidine-1-carboxylate], in that order: below 100 nM, 0.68 nM and 97.7%.
For `NC(=O)[C@]12CC3CC(C1)[C@@H](OC(=O)N1CC[C@@H](n4c(=O)[nH]c5cccc(Cl)c54)C1)C(C3)C2` [EXAMPLE 68, (R)-trans-1-carbamoyl-4-adamantyl 3-(7-chloro-2-oxo-2,3-dihydro-1H-benzo[d]imidazol-1-yl)pyrrolidine-1-carboxylate] the same measures were below 100 nM, 0.46 nM and 96.9%.
Turning to `NC(=O)[C@]12CC3CC(C1)[C@@H](OC(=O)N1CC[C@@H](n4c(=O)[nH]c5cc(Cl)cnc54)C1)C(C3)C2` [EXAMPLE 69, (R)-trans-1-carbamoyl-4-adamantyl 3-(6-chloro-2-oxo-1H-imidazo[4,5-b]pyridin-3(2H)-yl)pyrrolidine-1-carboxylate], the values for the half-inhibitory concentration (IC50) on 11β-HSD1 [3] (setting [4]) and on 11β-HSD1 [3] (read-out: IC50) were below 100 nM and 1.04 nM, respectively. Also, on 11β-HSD1 [3] (setting [5]), the inhibition at 0.1 µM was 97%.
Turning to `Cn1c(=O)n([C@H]2CCN(C(=O)O[C@H]3C4CC5CC3C[C@](C(N)=O)(C5)C4)C2)c2ccc(C#N)cc21` [EXAMPLE 70, (S)-trans-1-carbamoyl-4-adamantyl 3-(5-cyano-3-methyl-2-oxo-2,3-dihydro-1H-benzo[d]imidazol-1-yl)pyrrolidine-1-carboxylate], on 11β-HSD1 [3] (setting [4]), the IC50 is below 100 nM. The inhibition at 0.1 µM on 11β-HSD1 [3] (read-out: Average % inhibition at 100 nM) was found to be 91.3%.
Turning to `Cn1c(=O)n([C@H]2CCN(C(=O)O[C@H]3C4CC5CC3C[C@](C(N)=O)(C5)C4)C2)c2c(Cl)cccc21` [EXAMPLE 71, (S)-trans-1-carbamoyl-4-adamantyl 3-(7-chloro-3-methyl-2-oxo-2,3-dihydro-1H-benzo[d]imidazol-1-yl)pyrrolidine-1-carboxylate], the IC50 is below 100 nM at 11β-HSD1 [3] (setting [4]) and 0.67 nM at 11β-HSD1 [3] (read-out: IC50). The inhibition at 0.1 µM at 11β-HSD1 [3] (setting [5]) stood at 96.6%.
As to `COC(=O)Cn1c(=O)n([C@H]2CCN(C(=O)O[C@H]3C4CC5CC3C[C@](C(N)=O)(C5)C4)C2)c2ccc(F)cc21` [EXAMPLE 72, (S)-trans-1-carbamoyl-4-adamantyl 3-(5-fluoro-3-(2-methoxy-2-oxoethyl)-2-oxo-2,3-dihydro-1H-benzo[d]imidazol-1-yl)pyrrolidine-1-carboxylate], the IC50 on 11β-HSD1 [3] (setting [4]) was below 100 nM; on 11β-HSD1 [3] (read-out: IC50), 7.11 nM. On 11β-HSD1 [3] (setting [5]), the inhibition at 0.1 µM stood at 84.9%.
For `NC(=O)[C@]12CC3CC(C1)[C@@H](OC(=O)N1CC[C@H](n4c(=O)n(CCO)c5cc(F)ccc54)C1)C(C3)C2` [EXAMPLE 73, (S)-trans-1-carbamoyl-4-adamantyl 3-(5-fluoro-3-(2-hydroxyethyl)-2-oxo-2,3-dihydro-1H-benzo[d]imidazol-1-yl)pyrrolidine-1-carboxylate] the same measures were below 100 nM, 4.52 nM and 93%.
For `Cc1nc2cc(C#N)ccc2n1[C@H]1CCN(C(=O)OC2C3CC4CC2CC(C(N)=O)(C4)C3)C1` (stereo partly drawn) [EXAMPLE 75, (S)-1-carbamoyl-4-adamantyl 3-(5-cyano-2-methyl-1H-benzo[d]imidazol-1-yl)pyrrolidine-1-carboxylate] the same measures were below 100 nM, 5.03 nM and 39.1%.
For `Cc1nc2cccc(Cl)c2n1[C@H]1CCN(C(=O)OC2C3CC4CC2CC(C(N)=O)(C4)C3)C1` (stereo partly drawn) [EXAMPLE 76, (S)-1-carbamoyl-4-adamantyl 3-(7-chloro-2-methyl-1H-benzo[d]imidazol-1-yl)pyrrolidine-1-carboxylate], in that order: below 100 nM, 1.11 nM and 93.6%.
In turn, `N#Cc1ccc(=O)n([C@@H]2CCN(C(=O)OC3C4CC5CC3CC(O)(C5)C4)C2)c1` (stereo partly drawn) [Example 77, (R)-3-(5-Cyano-2-oxo-2H-pyridin-1-yl)-pyrrolidine-1-carboxylic acid 5-hydroxy-adamantan-2-yl ester] gave an IC50 on 11β-HSD1 [1] above 10000 nM.
